Inhibition and Activity data for seven compounds are collected here from ChEMBL document CHEMBL4476870, “Arf6 inhibitors and methods of synthesis and use thereof” (2017).

As usually defined, the inhibition is the share of the control response that was lost under treatment.

The species entered for test [1] is Homo sapiens. In words: Antiinvasive activity against human LOX cells assessed as inhibition of 5% FBS-induced cell invasion at 30 uM by Matrigel based cell invasion assay. The format is functional.
Test [2] concerns Mus musculus. Kind of test: Inhibition of VEGF-induced retinal permeability in mouse at 500 ng dosed as single intraocular injection followed by Evan blue dye injection 6 hrs post drug dose and measured after 2 hrs. Type of test: functional, organism-based.
Test [3] relates to Influenza A virus. Kind of test: Antiviral activity against Influenza A virus (H1N1) infected in mouse assessed as reduction in virus-infection induced mortality by measuring mouse survival at 20 mg/kg, ip qd for 5 days dosed 4 hrs before virus infection. The format is functional, organism-based.
Test [4] concerns Mus musculus. In words: Reduction in LPS-induced acute lung injury in mouse assessed as reduction in protein concentration at 5 mg/kg dosed 2 hrs post LPS challenge. The format is functional, organism-based.
Test [5] concerns Mus musculus. In words: Reduction in LPS-induced acute lung injury in mouse assessed as reduction in number of cells in BALF at 5 mg/kg dosed 2 hrs post LPS challenge. The format is functional, organism-based.
In test [6] the test system is Mus musculus. Kind of test: Anti-inflammatory activity in mouse model of collagen-induced arthritis assessed as reduction in arthritic index at 10 to 60 mg/kg, BID for 14 days and measured up to 15 days post dose. Type of test: functional, organism-based.
In test [7] the test system is Mus musculus. Kind of test: Reduction in oxygen-induced retinopathy in mouse placed in 75% oxygen-environment from day 5 to 12 assessed as reduction in neovascularization at 5 ug dosed via intraocular injection on day 12 and 15 and measured on day 17. The format is functional, organism-based.
Test [8] deals with Mus musculus. Kind of test: Reduction in LPS-induced acute lung injury in mouse assessed as reduction in number of cells in BALF at 60 mg/kg dosed 3 hrs post LPS challenge. The format is functional, organism-based.
For test [9], the species on record is Homo sapiens. Kind of test: Antiproliferative activity against human LOX cells assessed as inhibition of cell proliferation at >1 uM by WST8 dye based colorimetric assay. Type of test: functional.
Test [10] concerns Mus musculus. Kind of test: Reduction in LPS-induced acute lung injury in mouse assessed as reduction in protein concentration at 60 mg/kg dosed 3 hrs post LPS challenge. The format is functional, organism-based.
The test system of test [11] is Mus musculus. In words: Reduction in LPS-induced acute lung injury in mouse assessed as reduction in protein concentration at 60 mg/kg dosed 4 hrs post LPS challenge. Type of test: functional, organism-based.
Test [12] has as its system Mus musculus. Kind of test: Reduction in LPS-induced acute lung injury in mouse assessed as reduction in number of cells in BALF at 60 mg/kg dosed 4 hrs post LPS challenge. Type of test: functional, organism-based.
Test [13] concerns Mus musculus. Kind of test: Inhibition of VEGF-induced retinal permeability in mouse at 50 ng dosed as single intraocular injection followed by Evan blue dye injection 6 hrs post drug dose and measured after 2 hrs. Type of test: functional, organism-based.
Test [14] has as its target PH and SEC7 domain-containing protein 1 (Mus musculus) (UniProt Q5DTT2). In words: Inhibition of Arf6 activation in mouse NIH/3T3 cells assessed as effect on GTP-bound Arf6 incubated for 4 hrs immobilized GST-tagged Gga3 by based pull down assay. Type of test: cell-based.
Test [15] can be described thus: Antiinvasive activity against human LOX cells assessed as inhibition of 5% FBS-induced cell invasion at 1 uM by Matrigel based cell invasion assay. Type of test: functional.
Test [16] concerns Mus musculus. Kind of test: Inhibition of choroidal neovascularization in mouse with laser-induced Bruch's membrane disruption dosed on day 0 and 7 and measured on day 14. Type of test: functional, organism-based.
Test [17] deals with Rattus norvegicus. Kind of test: Inhibition of VEGF-induced retinal permeability in rat assessed as reduction in vascular leak at 60 mg/kg, ip dosed 1 hr before VEGF injection on day1 followed by Evan blue dye injection on day2 and measured on day 3. Type of test: functional, organism-based.
Test [18] relates to LN-229. Kind of test: Antiproliferative activity against human LN229 cells assessed as inhibition of cell proliferation at >1 uM by WST8 dye based colorimetric assay. Type of test: functional. For orientation: Tetrazolium dyes change colour on reduction, which living cells bring about.
In test [19] the test system is Mus musculus. In words: Inhibition of VEGF-induced retinal permeability in mouse at 5 ug dosed as single intraocular injection followed by Evan blue dye injection 6 hrs post drug dose and measured after 2 hrs. The format is functional, organism-based.
The subject of test [20] is Mus musculus. Kind of test: Inhibition of choroidal neovascularization in mouse with laser-induced Bruch's membrane disruption at 5 ug dosed on day 0 and 7 and measured on day 14. Type of test: functional, organism-based.

Calls of active or inactive are those of the source. No cut-off for these calls is given here.

PH and SEC7 domain-containing protein 1 (Mus musculus), sequence (Q5DTT2 whole entry, the tested form may be a part): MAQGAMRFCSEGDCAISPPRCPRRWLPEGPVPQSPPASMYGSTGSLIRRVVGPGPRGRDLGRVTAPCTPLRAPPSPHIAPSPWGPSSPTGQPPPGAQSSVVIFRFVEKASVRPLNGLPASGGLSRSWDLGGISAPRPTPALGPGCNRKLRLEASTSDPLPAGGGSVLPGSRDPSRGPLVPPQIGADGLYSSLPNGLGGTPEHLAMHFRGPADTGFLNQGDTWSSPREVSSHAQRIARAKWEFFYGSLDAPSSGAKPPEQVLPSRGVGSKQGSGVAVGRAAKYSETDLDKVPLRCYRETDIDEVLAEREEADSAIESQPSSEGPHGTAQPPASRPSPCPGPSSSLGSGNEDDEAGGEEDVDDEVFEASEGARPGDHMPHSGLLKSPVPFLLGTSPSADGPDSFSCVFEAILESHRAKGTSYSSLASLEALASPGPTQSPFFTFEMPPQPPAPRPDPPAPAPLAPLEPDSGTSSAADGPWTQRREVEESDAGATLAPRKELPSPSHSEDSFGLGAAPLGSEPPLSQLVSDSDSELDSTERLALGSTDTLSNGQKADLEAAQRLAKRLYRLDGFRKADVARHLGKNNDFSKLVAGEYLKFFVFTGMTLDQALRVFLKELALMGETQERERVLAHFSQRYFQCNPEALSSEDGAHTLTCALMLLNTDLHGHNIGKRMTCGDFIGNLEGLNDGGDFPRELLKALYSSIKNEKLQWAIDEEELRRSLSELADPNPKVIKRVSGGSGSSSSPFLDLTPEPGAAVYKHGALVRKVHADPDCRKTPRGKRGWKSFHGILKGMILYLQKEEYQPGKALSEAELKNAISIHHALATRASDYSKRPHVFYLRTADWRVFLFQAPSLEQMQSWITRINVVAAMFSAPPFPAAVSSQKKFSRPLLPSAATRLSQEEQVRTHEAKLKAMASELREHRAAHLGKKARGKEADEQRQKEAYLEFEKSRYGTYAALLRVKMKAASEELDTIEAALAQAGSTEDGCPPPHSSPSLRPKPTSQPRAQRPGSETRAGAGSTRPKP

Turning to `COc1nc(-c2ccc3c(c2)OCO3)n(-c2ccc(NC(=O)CSc3ccccc3)cc2)n1`, in test [1], the inhibition result was “Active”.

`O=c1cc(Cc2ccccc2)[nH]c2c(-c3ccc(Cl)cc3)c(C(F)(F)F)nn12`: the inhibition result in [2] is “Active”. Further, in test [3], the outcome was Active.

Take `COc1ccc(-c2c(Cc3ccccc3)nn3c(=O)cc(C)[nH]c23)cc1`: in [2], the inhibition entry is “Active”.

Regarding `C[C@@H]1C[C@H]2[C@@H]3CCC4=CC(=O)C=C[C@]4(C)[C@@]3(F)[C@@H](O)C[C@]2(C)[C@@]1(O)C(=O)CO`, the inhibition entry in [4] and in test [5] was “Active” each time.

On to `O=c1cc(-c2cccc(Oc3ccccc3)c2)[nH]c2c(-c3ccc(Cl)c(Cl)c3)c(C(F)(F)F)nn12`, for which the Activity entry in test [6] is “Dose-dependent effect”. Besides, the inhibition entry in [7] was “Active”.

Consider `O=c1cc(-c2ccc([N+](=O)[O-])cc2)[nH]c2c(-c3ccc(Cl)cc3)c(Cc3ccccc3)nn12`, for which the inhibition result in test [8], in test [9], in test [2], in test [10], in test [11] and in test [12] was “Active” in each case. Further, the inhibition entry in [13], in [14], in [7], in test [17] and in test [18] was “Active” throughout. The inhibition at 1 µM in test [15] stood at 100%. Also, the inhibition entry in test [16] is “Dose-dependent effect”.

Turning to `CN(C)c1ccc(/C=C2/C(=O)Nc3ccccc32)cc1`, in test [19], the inhibition entry was “inactive”. In addition, the inhibition result in test [20] and in test [7] was “Active” in each case.
